Data set [1] concerns the target T1, orangutan SLC22A10 (533 aa) (Pongo abelii, UniProt A0A8I5UWR8).
T1 construct: full length 533 aa isoform, synthetic cDNA, HEK293 Flp-In cells
T1 sequence (A0A8I5UWR8 1-533): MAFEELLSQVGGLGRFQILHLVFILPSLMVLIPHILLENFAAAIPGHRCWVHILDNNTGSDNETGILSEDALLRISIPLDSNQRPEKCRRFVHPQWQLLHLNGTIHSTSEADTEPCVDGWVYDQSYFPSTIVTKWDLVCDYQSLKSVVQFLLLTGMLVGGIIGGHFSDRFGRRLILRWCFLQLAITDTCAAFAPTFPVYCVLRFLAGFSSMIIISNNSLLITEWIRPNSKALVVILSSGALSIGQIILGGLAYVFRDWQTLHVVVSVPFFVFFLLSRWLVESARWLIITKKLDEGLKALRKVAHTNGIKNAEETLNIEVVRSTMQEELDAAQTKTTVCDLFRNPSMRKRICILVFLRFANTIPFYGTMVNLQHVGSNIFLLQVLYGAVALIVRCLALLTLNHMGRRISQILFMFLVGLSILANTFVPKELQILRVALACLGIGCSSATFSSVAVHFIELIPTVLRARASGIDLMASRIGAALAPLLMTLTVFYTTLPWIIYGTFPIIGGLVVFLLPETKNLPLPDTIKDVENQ
Description: radiolabelled uptake in HEK293 Flp-In cells. The class given is cell-based. The note with it: labelled compound; HBSS.

The target in the next data set is T2, gibbon SLC22A10 (533 aa) (Nomascus leucogenys, UniProt G1QWU8).
T2 construct: gene LOC100590002; full length 533 aa isoform, synthetic cDNA, HEK293 Flp-In cells
Description: radiolabelled uptake in HEK293 Flp-In cells. The following applies: labelled compound; HBSS. The format is cell-based.

A further data set has as its target T3, human SLC22A10 (541 aa) (Homo sapiens, UniProt Q63ZE4, P220L).
T3 construct: full length 541 aa, pcDNA3.1(+) or N-terminal eGFP fusion, transient HEK293 Flp-In cells
T3 sequence (Q63ZE4 1-541 P220L): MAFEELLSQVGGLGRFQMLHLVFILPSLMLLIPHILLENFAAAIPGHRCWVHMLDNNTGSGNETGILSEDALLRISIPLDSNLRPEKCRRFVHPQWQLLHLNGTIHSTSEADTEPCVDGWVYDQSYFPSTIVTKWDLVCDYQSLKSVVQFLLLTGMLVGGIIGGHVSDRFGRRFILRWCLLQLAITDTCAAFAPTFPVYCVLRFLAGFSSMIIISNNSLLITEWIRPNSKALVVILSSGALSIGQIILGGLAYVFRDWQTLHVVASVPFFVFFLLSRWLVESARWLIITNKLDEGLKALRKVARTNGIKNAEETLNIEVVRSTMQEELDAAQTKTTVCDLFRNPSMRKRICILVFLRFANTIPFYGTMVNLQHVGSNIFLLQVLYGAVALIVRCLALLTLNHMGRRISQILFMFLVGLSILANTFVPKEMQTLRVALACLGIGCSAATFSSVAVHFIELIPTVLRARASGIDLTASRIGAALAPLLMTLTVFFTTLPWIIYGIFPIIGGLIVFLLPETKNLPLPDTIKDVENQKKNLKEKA
The data set is described as follows: radiolabelled uptake in transiently transfected HEK293 Flp-In cells. The format is cell-based. The following applies: labelled compound; HBSS.

Data set [2] deals with T4, gorilla SLC22A10 (552 aa) (Gorilla gorilla, UniProt G3RG24).
T4 construct: full length 552 aa, synthetic cDNA, HEK293 Flp-In cells
Description: radiolabelled uptake in HEK293 Flp-In cells. The following applies: labelled compound; HBSS. The class given is cell-based.

Data set [3] concerns the target T5, chimpanzee SLC22A10 (533 aa) (Pan troglodytes, UniProt A0A2I3TWY5).
T5 sequence (A0A2I3TWY5 1-540): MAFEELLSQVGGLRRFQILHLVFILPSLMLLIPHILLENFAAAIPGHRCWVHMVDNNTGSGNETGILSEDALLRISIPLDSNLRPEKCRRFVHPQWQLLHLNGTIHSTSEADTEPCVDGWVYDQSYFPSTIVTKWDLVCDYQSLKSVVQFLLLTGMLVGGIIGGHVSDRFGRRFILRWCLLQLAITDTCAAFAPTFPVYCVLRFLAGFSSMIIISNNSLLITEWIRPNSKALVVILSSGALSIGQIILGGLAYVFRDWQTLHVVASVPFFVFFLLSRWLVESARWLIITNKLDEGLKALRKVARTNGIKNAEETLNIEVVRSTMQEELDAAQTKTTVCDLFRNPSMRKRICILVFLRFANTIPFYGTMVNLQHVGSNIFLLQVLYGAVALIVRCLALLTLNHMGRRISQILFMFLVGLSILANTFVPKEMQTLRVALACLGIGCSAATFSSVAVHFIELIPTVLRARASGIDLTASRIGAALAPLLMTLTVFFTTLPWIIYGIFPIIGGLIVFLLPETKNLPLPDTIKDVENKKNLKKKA
Description: radiolabelled uptake in stable HEK293 Flp-In cells, Michaelis-Menten fit. The class given is cell-based. The note with it: 37 °C, 5 min uptake, HBSS; empty-vector uptake subtracted; labelled compound.

Data set [4] deals with T6, squirrel monkey SLC22A10 (552 aa) (Saimiri boliviensis, UniProt A0A2K6SBP5).
T6 construct: full length 552 aa, synthetic cDNA, HEK293 Flp-In cells
T6 sequence (A0A2K6SBP5 1-552): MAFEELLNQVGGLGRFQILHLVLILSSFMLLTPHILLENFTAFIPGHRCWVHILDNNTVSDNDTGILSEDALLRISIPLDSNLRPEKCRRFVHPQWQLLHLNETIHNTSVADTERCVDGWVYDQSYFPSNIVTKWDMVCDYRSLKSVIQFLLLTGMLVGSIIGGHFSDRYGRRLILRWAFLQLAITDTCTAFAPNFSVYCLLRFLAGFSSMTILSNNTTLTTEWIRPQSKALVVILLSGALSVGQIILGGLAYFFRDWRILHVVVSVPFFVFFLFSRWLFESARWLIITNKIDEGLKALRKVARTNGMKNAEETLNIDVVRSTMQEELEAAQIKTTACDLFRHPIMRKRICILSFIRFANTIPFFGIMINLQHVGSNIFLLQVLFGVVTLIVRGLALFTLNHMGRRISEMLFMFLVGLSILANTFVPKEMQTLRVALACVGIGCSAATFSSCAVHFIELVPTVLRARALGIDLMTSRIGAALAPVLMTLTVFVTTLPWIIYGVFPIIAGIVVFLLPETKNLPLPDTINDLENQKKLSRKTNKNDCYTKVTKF
The data set is described as follows: radiolabelled uptake in HEK293 Flp-In cells. The format is cell-based. The following applies: labelled compound; HBSS.

Substrate in data set [5]: C[C@]12CC[C@@H]3c4ccc(O)cc4CC[C@H]3[C@@H]1CC[C@@H]2O[C@@H]1O[C@H](C(=O)O)[C@@H](O)[C@H](O)[C@H]1O
Description: radiolabelled uptake in stable HEK293 Flp-In cells, Michaelis-Menten fit. The class given is cell-based, Pan troglodytes. The note with it: 37 °C, 5 min uptake, HBSS, empty-vector uptake subtracted, labelled compound.

We go through four molecules from PMC11116522, “Illuminating the function of the orphan transporter, SLC22A10, in humans and other primates” (Nature Communications, 2024).

Counter-ions that a name gives are not always drawn.

T2 sequence (G1QWU8 1-533): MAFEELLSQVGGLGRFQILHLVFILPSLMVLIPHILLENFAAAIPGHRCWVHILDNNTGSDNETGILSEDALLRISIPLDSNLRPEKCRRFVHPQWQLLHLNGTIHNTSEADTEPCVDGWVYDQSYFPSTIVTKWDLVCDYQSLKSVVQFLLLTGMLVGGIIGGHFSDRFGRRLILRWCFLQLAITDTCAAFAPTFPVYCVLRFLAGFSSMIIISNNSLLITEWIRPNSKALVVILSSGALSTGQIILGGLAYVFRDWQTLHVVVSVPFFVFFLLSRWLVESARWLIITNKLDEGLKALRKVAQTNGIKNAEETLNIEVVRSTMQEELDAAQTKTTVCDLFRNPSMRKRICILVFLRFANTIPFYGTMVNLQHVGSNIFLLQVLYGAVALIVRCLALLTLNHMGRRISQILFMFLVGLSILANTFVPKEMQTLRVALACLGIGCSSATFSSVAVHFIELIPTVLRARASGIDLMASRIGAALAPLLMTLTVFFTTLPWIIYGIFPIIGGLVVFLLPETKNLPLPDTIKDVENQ
T4 sequence (G3RG24 entry or part of it): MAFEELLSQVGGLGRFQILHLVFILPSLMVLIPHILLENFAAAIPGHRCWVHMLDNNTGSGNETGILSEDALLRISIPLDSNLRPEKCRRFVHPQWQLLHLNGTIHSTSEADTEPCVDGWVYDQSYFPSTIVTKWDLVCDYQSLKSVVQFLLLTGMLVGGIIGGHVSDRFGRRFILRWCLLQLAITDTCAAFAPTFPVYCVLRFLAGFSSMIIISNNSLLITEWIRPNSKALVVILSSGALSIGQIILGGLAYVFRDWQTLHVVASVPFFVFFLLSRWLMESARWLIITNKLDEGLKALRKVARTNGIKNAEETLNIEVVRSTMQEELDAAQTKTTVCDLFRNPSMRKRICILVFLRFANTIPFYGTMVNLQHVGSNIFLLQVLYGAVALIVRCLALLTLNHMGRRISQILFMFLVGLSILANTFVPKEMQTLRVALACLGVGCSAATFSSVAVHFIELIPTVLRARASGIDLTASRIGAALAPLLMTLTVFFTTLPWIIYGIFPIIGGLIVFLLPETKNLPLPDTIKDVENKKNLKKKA

For `Nc1nc2ncc(CNc3ccc(C(=O)N[C@@H](CCC(=O)O)C(=O)O)cc3)nc2c(=O)[nH]1` [folic acid], the fold uptake result was “from chimpanzee, orangutan and gibbon accumulated [^3H]-estradiol-17β-glucuronide and [^3H]-folic acid” in data set [1]; “from chimpanzee, orangutan and gibbon accumulated [^3H]-estradiol-17β-glucuronide and [^3H]-folic acid” at gibbon SLC22A10 (533 aa).
With `C[C@]12CC[C@@H]3c4ccc(O)cc4CC[C@H]3[C@@H]1CC[C@@H]2O[C@@H]1O[C@H](C(=O)O)[C@@H](O)[C@H](O)[C@H]1O` [estradiol-17β-glucuronide], the fold uptake entry on human SLC22A10 (541 aa) is “resulting in substantial accumulation of the substrate, estradiol-17β-glucuronide”; in data set [2] it was “Significant accumulation of [^3H]-estradiol-17β-glucuronide and [^3H]-androstanediol-3α-glucuronide were observed in cells expressing”; in data set [1], “from chimpanzee, orangutan and gibbon accumulated [^3H]-estradiol-17β-glucuronide and [^3H]-folic acid”; on gibbon SLC22A10 (533 aa), “from chimpanzee, orangutan and gibbon accumulated [^3H]-estradiol-17β-glucuronide and [^3H]-folic acid”. In data set [3], the Km came to 3.28 ± 2.25 µM.
Turning to `C[C@]12CC[C@@H]3c4ccc(OS(=O)(=O)O)cc4CC[C@H]3[C@@H]1CCC2=O` [estrone sulfate], the uptake result in data set [4] is reported as “squirrel monkey, a New World monkey, preferred estrone sulfate over estradiol-17β- glucuronide”.

B1: chimpanzee SLC22A10 (552 aa) (Pan troglodytes) (protein)
chain: MAFEELLSQVGGLRRFQILHLVFILPSLMLLIPHILLENFAAAIPGHRCWVHMVDNNTGSGNETGILSEDALLRISIPLDSNLRPEKCRRFVHPQWQLLHLNGTIHSTSEADTEPCVDGWVYDQSYFPSTIVTKWDLVCDYQSLKSVVQFLLLTGMLVGGIIGGHVSDRFGRRFILRWCLLQLAITDTCAAFAPTFPVYCVLRFLAGFSSMIIISNNSLLITEWIRPNSKALVVILSSGALSIGQIILGGLAYVFRDWQTLHVVASVPFFVFFLLSRWLVESARWLIITNKLDEGLKALRKVARTNGIKNAEETLNIEVVRSTMQEELDAAQTKTTVCDLFRNPSMRKRICILVFLRFANTIPFYGTMVNLQHVGSNIFLLQVLYGAVALIVRCLALLTLNHMGRRISQILFMFLVGLSILANTFVPKEMQTLRVALACLGIGCSAATFSSVAVHFIELIPTVLRARASGIDLTASRIGAALAPLLMTLTVFFTTLPWIIYGIFPIIGGLIVFLLPETKNLPLPDTIKDVENQKKISRKRHKNDCYTKVTKF
Consider B1, for which, in data set [5], the Km is listed as 2.16 ± 0.59 µM.
